Results published in PMC9854728, “Synthesis and Antioxidant Properties of Novel 1,2,3-Triazole-Containing Nitrones” (Antioxidants, 2022).
Read-outs that look alike come from different tables or passages of the source.

Experiments:
[1] = Inhibition of linoleic acid peroxidation (ILP) induced by AAPH; conditions: tested at 100 µM, 37 °C
Experimental: (§1) The in vitro antioxidant assays for nitrones 8 and 9 were performed concentrations of 100 µM (from a stock solution 10 mM in 0.1% DMSO in deionized water). Several dilutions were made when the determination of IC50 values was needed. All the determinations were made, at least in triplicate, and the standard deviation of absorbance was less than 10% of the mean. The nitrones were diluted under sonification in the appropriate buffer in several dilutions (Table 1).
The production of conjugated diene hydroperoxide by the oxidation of linoleate sodium 16 mM linoleate sodium (10 µL) in an aqueous solution is monitored at 234 nm. AAPH 40 mM (50 µL) is used as a free radical initiator at 37 °C under air conditions, followed by the tested nitrones. This assay can be used to follow oxidative changes by recording the absorbance values at 234 nm, using Trolox as a reference compound. The experimental procedure follows our previously reported protocol.

[2] = Competition with DMSO for hydroxyl radicals; conditions: tested at 100 µM, Fe3+/ascorbic acid system, 37 °C, 30 min; no = no activity
Experimental: as §1
The hydroxyl radicals, produced by the Fe^3+/ascorbic acid system, were detected by the determination of formaldehyde produced from the oxidation of DMSO [8]. Solutions of EDTA (0.1 mM), Fe^3+ (167 μM), DMSO (33 mM) in phosphate buffer (50 mM, pH 7.4), as well as the tested compounds (10 μL final concentration 100 μM) and ascorbic acid (10 mM) were mixed in test tubes and incubated at 37 °C for 30 min. The reaction was stopped by adding CCl3COOH (17% w/v), and the % competition activity of the nitrones 8 and 9 with DMSO for hydroxyl radicals was calculated. Trolox was used as a positive control.

[3] = ABTS radical cation decolorization assay; conditions: tested at 100 µM, 1 min, 734 nm; no = no activity
Experimental: as §1
ABTS stock solution in water (7 mM) was mixed with potassium persulfate (2.45 mM) and left in the dark at rt for 12–16 h before use, followed by the production of the ABTS radical cation (ABTS^+·). The assay was performed as described previously. The results were recorded after 1 min of the mixing solutions at 734 nm. Trolox was used as a positive control.

[4] = molecular target: T1, soybean lipoxygenase (LOX) (Glycine max, UniProt P08170); assay: In vitro inhibition of soybean lipoxygenase (LOX); format: biochemical; conditions: for inhibition at 100 µM / LOX Inhibition (%): tested at 100 µM, no = no activity under the experimental conditions; for LOX Inhibition (%): 100 µM
T1 construct: purchased Aldrich Chemical Co. (Milwaukee, WI, USA)
T1 sequence (P08170 1-839): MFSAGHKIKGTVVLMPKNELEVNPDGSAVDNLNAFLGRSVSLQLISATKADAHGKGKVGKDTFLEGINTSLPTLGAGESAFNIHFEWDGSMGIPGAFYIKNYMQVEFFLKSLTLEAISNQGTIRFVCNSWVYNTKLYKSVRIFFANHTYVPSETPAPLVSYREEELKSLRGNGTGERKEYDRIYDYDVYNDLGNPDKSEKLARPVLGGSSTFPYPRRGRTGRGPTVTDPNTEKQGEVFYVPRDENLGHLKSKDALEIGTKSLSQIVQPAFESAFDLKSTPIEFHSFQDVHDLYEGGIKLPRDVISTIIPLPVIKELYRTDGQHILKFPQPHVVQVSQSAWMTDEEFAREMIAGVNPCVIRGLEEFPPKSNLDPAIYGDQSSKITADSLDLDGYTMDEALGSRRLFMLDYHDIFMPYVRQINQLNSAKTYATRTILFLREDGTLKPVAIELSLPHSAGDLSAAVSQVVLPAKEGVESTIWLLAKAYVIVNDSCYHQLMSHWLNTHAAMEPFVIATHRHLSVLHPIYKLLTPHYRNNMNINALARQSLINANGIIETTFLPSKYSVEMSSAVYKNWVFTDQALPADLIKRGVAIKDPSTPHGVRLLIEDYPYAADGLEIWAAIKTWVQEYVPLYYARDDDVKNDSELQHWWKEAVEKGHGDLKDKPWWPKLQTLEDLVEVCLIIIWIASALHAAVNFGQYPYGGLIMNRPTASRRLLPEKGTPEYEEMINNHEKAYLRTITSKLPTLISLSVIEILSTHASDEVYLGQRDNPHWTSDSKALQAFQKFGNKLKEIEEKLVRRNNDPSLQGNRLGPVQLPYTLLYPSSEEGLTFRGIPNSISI
Experimental: as §1, with “All the determinations were made, at least in triplicate, and the standard deviation of absorbance was less than 10% of the mean.” left out
The in vitro study was evaluated as reported previously. Compounds 8a–f or 9a–f (10 μL) were incubated at rt with sodium linoleate (0.1 mM) and 200 μL of enzyme solution (1/9 × 10^–4 w/v in saline). Tris buffer pH 9 was inserted. The conversion of sodium linoleate to 13-hydroperoxylinoleic acid was recorded at 234 nm. […] Several dilutions of compounds were used for the determination of IC50 values. Blank determination served as the negative control.

[5] = soybean LOX, sodium linoleate 0.1 mM, Tris buffer pH 9, read-out: LOX Inhibition IC50

| IC50 [4, 5] | melting point | inhibition at 100 µM [4] | LOX Inhibition (%) [4] | LOX inhibition, fold less potent than NDGA ([4]; IC50 27 μM vs NDGA […]) | LOX Inhibition IC50 ([4]; soybean LOX, sodium linoleate 0.1 mM, Tris buffer pH 9) | IC50 [4] | Compound | ILP (%) [1] | Scavenging Activity for HO• (%) [2] | ABTS+• (%) [3] |
| --- | --- | --- | --- | --- | --- | --- | --- | --- | --- | --- |
|  |  |  |  |  |  |  | CC(C)(C)/[N+]([O-])=C/c1ccccc1 [PBN, (Z)-N-tert-butyl-1-phenylmethanimine oxide, reference compound] | 11% | no | 5% |
| 37.5 µM | 97 to 98 °C |  |  |  |  |  | C[N+]([O-])=CCn1cc(-c2ccccc2)nn1 [Nitrone 8a, N-(2-(4-Phenyl-1H-1,2,3-Triazol-1-yl)Ethylidene)Methanamine Oxide] | 48.4% | 93% | 14% |
|  | 158 to 160 °C | 40% |  |  |  |  | C[N+]([O-])=CCn1cc(-c2cccc(F)c2)nn1 [Nitrone 8c, N-(2-(4-(3-Fluorophenyl)-1H-1,2,3-Triazol-1-yl)Ethylidene)Methanamine Oxide] | 65% | 59% | no |
|  | 165 to 167 °C |  | loses its activity and no |  |  |  | C[N+]([O-])=CCn1cc(-c2ccc(F)cc2)nn1 [Nitrone 8d, N-(2-(4-(4-Fluorophenyl)-1H-1,2,3-Triazol-1-yl)Ethylidene)Methanamine Oxide] | 54% | 80% | 5.3% |
|  | 94 to 95 °C |  | no inhibition and no |  |  |  | CC(C)(C)[N+]([O-])=CCn1cc(-c2cccc(F)c2)nn1 [Nitrone 9c, N-(2-(4-(3-Fluorophenyl)-1H-1,2,3-Triazol-1-yl)Ethylidene)-2-Methylpropan-2-Amine Oxide] |  | 89% | no |
| 100 µM | 128 to 131 °C |  |  |  |  |  | CC(C)(C)[N+]([O-])=CCn1cc(-c2ccc(F)cc2)nn1 [Nitrone 9d, N-(2-(4-(4-Fluorophenyl)-1H-1,2,3-Triazol-1-yl)Ethylidene)-2-Methylpropan-2-Amine Oxide] |  | 99% | no |
|  |  |  |  |  |  |  | Cc1c(C)c2c(c(C)c1O)CCC(C)(C(=O)O)O2 (stereo not drawn) [Trolox, reference compound] | 93% | 88% | 91% |
| 40 µM | 72 to 73 °C |  |  |  |  |  | CC(C)(C)[N+]([O-])=CCn1cc(-c2ccccc2F)nn1 [Nitrone 9b, N-(2-(4-(2-Fluorophenyl)-1H-1,2,3-Triazol-1-yl)Ethylidene)-2-Methylpropan-2-Amine Oxide] | 73% | 76% | no |
| 27 µM | 104 to 107 °C |  |  | 60 fold |  |  | Cc1cc(-c2cn(CC=[N+]([O-])C(C)(C)C)nn2)ccc1F [Nitrone 9f, N-(2-(4-(4-Fluoro-3-Methylphenyl)-1H-1,2,3-Triazol-1-yl)Ethylidene)-2-Methylpropan-2-Amine Oxide] | 87% | 99.9% | 16% |
|  | 171 to 173 °C | 44% |  |  |  |  | Cc1cc(-c2cn(CC=[N+](C)[O-])nn2)ccc1F [Nitrone 8f, N-(2-(4-(4-Fluoro-3-Methylphenyl)-1H-1,2,3-Triazol-1-yl)Ethylidene)Methanamine Oxide] | 41% | 91.5% | 34.3% |
| 100 µM | 122 to 123 °C |  |  |  | equipotent to the 9d |  | CC(C)(C)[N+]([O-])=CCn1cc(-c2ccc(F)cc2F)nn1 [Nitrone 9e, N-(2-(4-(2,4-Difluorophenyl)-1H-1,2,3-Triazol-1-yl)Ethylidene)-2-Methylpropan-2-Amine Oxide] | 100% | 100% | no |
|  | 122 to 123 °C |  |  |  |  | 87.5 µM | C[N+]([O-])=CCn1cc(-c2ccc(F)cc2F)nn1 [Nitrone 8e, N-(2-(4-(2,4-Difluorophenyl)-1H-1,2,3-Triazol-1-yl)Ethylidene)Methanamine Oxide] | 87% | 76% | no |
|  | 91 to 93 °C | 44% |  |  |  |  | CC(C)(C)[N+]([O-])=CCn1cc(-c2ccccc2)nn1 [Nitrone 9a, 2-Methyl-N-(2-(4-Phenyl-1H-1,2,3-Triazol-1-yl)Ethylidene)Propan-2-Amine Oxide] | 74.5% | 76% | 4% |
|  | 125 to 126 °C | 24% |  |  |  |  | C[N+]([O-])=CCn1cc(-c2ccccc2F)nn1 [Nitrone 8b, N-(2-(4-(2-Fluorophenyl)-1H-1,2,3-Triazol-1-yl)Ethylidene)Methanamine Oxide] | 2% | 61% | 13% |
